experiment: Viscosity, AND SV10 vibrational viscometer; format: physicochemical; conditions: product dried to water content between about 0.2 and 1% w/w
Experimental: (§1) Where the starting materials were both liquids, no solvent was used for the synthesis. Viscosities were measured using an AND™ SV10 vibrational viscometer. Refractive indices were obtained using a Mettler Toledo Refracto™ 30 portable refractometer. Densities were measured simply by determining the mass of a measured volume of the liquid. All products were dried prior to characterisation, to a water content of between about 0.2 and 1% w/w.

Point of comparison: `CC(=O)O.CCN(CC)CC(O)CO` (stereo not drawn) [N,N-diethylpropane-2,3-diolammonium acetate], “Viscosity at 25° C. (centipoise) (error ± ~5%)” value 3100 centipoise. Against it:
- CC(=O)O.COCCCN [3-methoxypropylammonium acetate] — lower, 640 centipoise
- COCCCN.O=C(O)CO [3-methoxypropylammonium glycolate] — lower, 2670 centipoise
- CC(=O)O.CCN(CC)CCO [N,N-diethylethanolammonium acetate] — lower, 55 centipoise
- CCN(CC)CCO.O=CO [N,N-diethylethanolammonium formate] — lower, 395 centipoise
- CCN(CC)CCO.O=C(O)CO [N,N-diethylethanolammonium glycolate] — lower, 740 centipoise
- CCCCCCCC(=O)O.CCN(CC)CCO [N,N-diethylethanolammonium octanoate] — lower, 46 centipoise
- CCC(=O)O.CCN(CC)CCO [N,N-diethylethanolammonium propionate] — lower, 42 centipoise
- CC(=O)O.CN(C)CCOCCO [N,N-dimethyl-N-[(2-hydroxyethoxy)ethyl]ammonium acetate] — lower, 48 centipoise
- CC(=O)O.CN(C)CCCO [N,N-dimethylpropanolammonium acetate] — lower, 77 centipoise
- CN(C)CCCO.O=CO [N,N-dimethylpropanolammonium formate] — lower, 132 centipoise
- CN(C)CCCO.O=C(O)CO [N,N-dimethylpropanolammonium glycolate] — higher, 3320 centipoise
- CCC(=O)O.CN(C)CCCO [N,N-dimethylpropanolammonium propionate] — lower, 52 centipoise
- CC(=O)O.CCCCNCCO [N-butylethanolammonium acetate] — lower, 365 centipoise
- CCCCNCCO.O=CO [N-butylethanolammonium formate] — lower, 376 centipoise
- CCCCNCCO.O=C(O)CO [N-butylethanolammonium glycolate] — lower, 800 centipoise
- CCCCCCCC(=O)O.CCCCNCCO [N-butylethanolammonium octanoate] — lower, 388 centipoise
- CC(=O)O.CCCNCCO [N-propylethanolammonium acetate] — lower, 1310 centipoise
- CCC(=O)O.CCCNCCO [N-propylethanolammonium propionate] — lower, 483 centipoise
- N,N-dimethyl-2-methoxyethylammonium octanoate — lower, 13.5 centipoise

experiment: Refractive index, Mettler Toledo Refracto 30 portable refractometer; format: physicochemical; conditions: product dried to water content between about 0.2 and 1% w/w
Experimental: as §1

Point of comparison: `CC(=O)O.CN(C)CCCO` [N,N-dimethylpropanolammonium acetate], “Refractive index (error ± ~2%)” value 1.451. Against it:
- CC(=O)O.COCCCN [3-methoxypropylammonium acetate] — lower, 1.447
- COCCCN.O=C(O)CO [3-methoxypropylammonium glycolate] — higher, 1.470
- CC(=O)O.CCN(CC)CCO [N,N-diethylethanolammonium acetate] — higher, 1.453
- CCN(CC)CCO.O=CO [N,N-diethylethanolammonium formate] — higher, 1.462
- CCN(CC)CCO.O=C(O)CO [N,N-diethylethanolammonium glycolate] — higher, 1.466
- CCCCCCCC(=O)O.CCN(CC)CCO [N,N-diethylethanolammonium octanoate] — the same, 1.451
- CCC(=O)O.CCN(CC)CCO [N,N-diethylethanolammonium propionate] — lower, 1.450
- CC(=O)O.COCCN(C)C [N,N-dimethyl-2-methoxyethylammonium acetate] — lower, 1.426
- CCS(=O)(=O)O.COCCN(C)C [N,N-dimethyl-2-methoxyethylammonium ethanesulphonate] — lower, 1.449
- COCCN(C)C.O=C(O)CO [N,N-dimethyl-2-methoxyethylammonium glycolate] — higher, 1.459
- COCCN(C)C.CS(=O)(=O)O [N,N-dimethyl-2-methoxyethylammonium methanesulphonate] — lower, 1.449
- CCC(=O)O.COCCN(C)C [N,N-dimethyl-2-methoxyethylammonium propionate] — lower, 1.422
- COCCN(C)C.NS(=O)(=O)O [N,N-dimethyl-2-methoxyethylammonium sulphamate] — higher, 1.472
- CC(=O)O.CN(C)CCOCCO [N,N-dimethyl-N-[(2-hydroxyethoxy)ethyl]ammonium acetate] — lower, 1.45
- CN(C)CCCO.O=CO [N,N-dimethylpropanolammonium formate] — higher, 1.460
- CN(C)CCCO.O=C(O)CO [N,N-dimethylpropanolammonium glycolate] — higher, 1.472
- CCC(=O)O.CN(C)CCCO [N,N-dimethylpropanolammonium propionate] — lower, 1.441
- CC(=O)O.CCCCNCCO [N-butylethanolammonium acetate] — higher, 1.455
- CCCCNCCO.O=CO [N-butylethanolammonium formate] — higher, 1.462
- CCCCNCCO.O=C(O)CO [N-butylethanolammonium glycolate] — higher, 1.464
- CCCCCCCC(=O)O.CCCCNCCO [N-butylethanolammonium octanoate] — higher, 1.456
- CCC(=O)O.CCCCNCCO [N-butylethanolammonium propionate] — higher, 1.457
- CC(=O)O.COCCN(C)CCOC [N-methyl-bis(2-methoxyethyl)ammonium acetate] — lower, 1.423
- COCCN(C)CCOC.O=C(O)CO [N-methyl-bis(2-methoxyethyl)ammonium glycolate] — higher, 1.452
- CCC(=O)O.COCCN(C)CCOC [N-methyl-bis(2-methoxyethyl)ammonium propionate] — lower, 1.423
- CC(=O)O.CCCNCCO [N-propylethanolammonium acetate] — higher, 1.459
- CCC(=O)O.CCCNCCO [N-propylethanolammonium propionate] — higher, 1.456
- N,N-dimethyl-2-methoxyethylammonium octanoate — lower, 1.429
- N-methyl-bis(2-methoxyethyl)ammonium octanoate — lower, 1.431

experiment: Density, mass of a measured volume of the liquid; format: physicochemical; conditions: product dried to water content between about 0.2 and 1% w/w
Experimental: as §1

Point of comparison: `CCCCNCCO.O=CO` [N-butylethanolammonium formate], “Density (g/cm^3) (error ± ~2%)” value 1.04 g/mL. Against it:
- CC(=O)O.COCCCN [3-methoxypropylammonium acetate] — the same, 1.04 g/mL
- COCCCN.O=C(O)CO [3-methoxypropylammonium glycolate] — within 1.5-fold, 1.17 g/mL
- CC(=O)O.CCN(CC)CCO [N,N-diethylethanolammonium acetate] — within 1.5-fold, 1.00 g/mL
- CCN(CC)CCO.O=CO [N,N-diethylethanolammonium formate] — the same, 1.04 g/mL
- CCN(CC)CCO.O=C(O)CO [N,N-diethylethanolammonium glycolate] — within 1.5-fold, 1.11 g/mL
- CCCCCCCC(=O)O.CCN(CC)CCO [N,N-diethylethanolammonium octanoate] — within 1.5-fold, 0.96 g/mL
- CCC(=O)O.CCN(CC)CCO [N,N-diethylethanolammonium propionate] — within 1.5-fold, 0.98 g/mL
- CC(=O)O.CN(C)CCOCCO [N,N-dimethyl-N-[(2-hydroxyethoxy)ethyl]ammonium acetate] — within 1.5-fold, 1.05 g/mL
- CC(=O)O.CN(C)CCCO [N,N-dimethylpropanolammonium acetate] — within 1.5-fold, 1.03 g/mL
- CN(C)CCCO.O=CO [N,N-dimethylpropanolammonium formate] — within 1.5-fold, 1.07 g/mL
- CN(C)CCCO.O=C(O)CO [N,N-dimethylpropanolammonium glycolate] — within 1.5-fold, 1.14 g/mL
- CCC(=O)O.CN(C)CCCO [N,N-dimethylpropanolammonium propionate] — within 1.5-fold, 0.99 g/mL
- CC(=O)O.CCCCNCCO [N-butylethanolammonium acetate] — the same, 1.04 g/mL
- CCCCNCCO.O=C(O)CO [N-butylethanolammonium glycolate] — within 1.5-fold, 1.08 g/mL
- CCC(=O)O.CCCCNCCO [N-butylethanolammonium propionate] — within 1.5-fold, 1.00 g/mL
- CC(=O)O.CCCNCCO [N-propylethanolammonium acetate] — the same, 1.04 g/mL
- CCC(=O)O.CCCNCCO [N-propylethanolammonium propionate] — within 1.5-fold, 1.02 g/mL
- N,N-dimethyl-2-methoxyethylammonium octanoate — within 1.5-fold, 0.93 g/mL

— patent publication US20080221361A1, “Ionic Liquids” (BIONIQS LIMITED, priority 2005, published 2008)
